# “And” between values parts separate entries of the source, which are not always exact repeats. Equal entries are not always repeated. Toxic doses and inconclusive results are not listed.
# Tested on: P388 leukemia ip, CD2F1 mice, survival T/C
# Test: NCI In Vivo Anticancer Drug Screen. Data for tumor model P388 Leukemia (intraperitoneal) in CD2F1 (CDF1) mice
# Settings: endpoint: median survival time, higher = longer survival
# Summary of the method: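 Mice carrying the transplanted tumor received test compound or vehicle. Survival was recorded in each group, and the value is the treated-group measurement divided by that of the vehicle-treated control group.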
# [1] = dose: 50.0 mg/kg/injection, schedule: Q01DX005 (ip), vehicle: Klucel (hydroxypropylcellulose) (HPC)
# [2] = dose: 100.0 mg/kg/injection, schedule: Q01DX005 (ip), vehicle: Klucel (hydroxypropylcellulose) (HPC)
# [3] = dose: 200.0 mg/kg/injection, schedule: Q01DX005 (ip), vehicle: Klucel (hydroxypropylcellulose) (HPC)
# [4] = dose: 60.0 mg/kg/injection, schedule: Q01DX005 (ip), vehicle: saline with Tween-80
# [5] = dose: 120.0 mg/kg/injection, schedule: Q01DX005 (ip), vehicle: saline with Tween-80
# [6] = dose: 240.0 mg/kg/injection, schedule: Q01DX005 (ip), vehicle: saline with Tween-80
# [7] = dose: 12.5 mg/kg/injection, schedule: Q01DX009 (ip), vehicle: saline with Tween-80
# [8] = dose: 25.0 mg/kg/injection, schedule: Q01DX009 (ip), vehicle: saline with Tween-80
smiles,measurement,setting,value
Fc1ccccc1C(Nc1nc2ccccc2s1)Nc1nc2ccccc2s1,T/C,[1],109 % of control
same,T/C,[2],104 % of control
same,T/C,[3],113 % of control
COc1cc(C(CC(C)=O)c2cc3c(cc2OC(C)=O)OCO3)cc(OC)c1OC (stereo not drawn) (tested in a mixture with another compound),T/C,"dose: 30.0 mg/kg/injection, schedule: Q01DX005 (ip), vehicle: saline with Tween-80",99 % of control
same,T/C,[4],102 % of control and 122 % of control
same,T/C,[5],118 % of control
same,T/C,[6],162 % of control and 188 % of control
Cc1c(CNc2ccc(C(=O)NC(CC(=O)O)C(=O)O)cc2)ccc2nc(N)nc(N)c12 (stereo not drawn),T/C,"dose: 12.5 mg/kg/injection, schedule: Q04DX003 (ip), vehicle: saline with Tween-80",159 % of control
same,T/C,"dose: 16.5 mg/kg/injection, schedule: Q04DX003 (ip), vehicle: saline with Tween-80",200 % of control
Oc1ccc(O)cc1,T/C,[7],106 % of control
same,T/C,[8],113 % of control
same,T/C,"dose: 50.0 mg/kg/injection, schedule: Q01DX009 (ip), vehicle: saline with Tween-80",122 % of control
same,T/C,"dose: 100.0 mg/kg/injection, schedule: Q01DX009 (ip), vehicle: saline with Tween-80",150 % of control
O=C(O)C/[N+]([O-])=N\O,T/C,"dose: 50.0 mg/kg/injection, schedule: Q01DX009 (ip), vehicle: saline",102 % of control
same,T/C,"dose: 100.0 mg/kg/injection, schedule: Q01DX009 (ip), vehicle: saline",102 % of control
same,T/C,"dose: 100.0 mg/kg/injection, schedule: Q04DX003 (ip), vehicle: saline",104 % of control
same,T/C,"dose: 200.0 mg/kg/injection, schedule: Q01DX009 (ip), vehicle: saline",96 % of control
same,T/C,"dose: 200.0 mg/kg/injection, schedule: Q04DX003 (ip), vehicle: saline",105 % of control
same,T/C,"dose: 400.0 mg/kg/injection, schedule: Q01DX009 (ip), vehicle: saline",94 % of control
same,T/C,"dose: 400.0 mg/kg/injection, schedule: Q04DX003 (ip), vehicle: saline",92 % of control
CC(=O)OC(C)CCCCCCCCCCCCCCC1=C(C)C(=O)OC1=O (stereo not drawn),T/C,"dose: 25.0 mg/kg/injection, schedule: Q01DX005 (ip), vehicle: Klucel (hydroxypropylcellulose) (HPC)",99 % of control
same,T/C,[1],106 % of control
same,T/C,[2],108 % of control
same,T/C,[3],105 % of control
same,T/C,"dose: 400.0 mg/kg/injection, schedule: Q01DX005 (ip), vehicle: Klucel (hydroxypropylcellulose) (HPC)",101 % of control
O=c1c2ccccc2[nH]c2c([N+](=O)[O-])ccc(Oc3ccc(CCc4ccc(Oc5ccc([N+](=O)[O-])c6[nH]c7ccccc7c(=O)c56)cc4)cc3)c12,T/C,"dose: 6.25 mg/kg/injection, schedule: Q01DX009 (ip), vehicle: saline with Tween-80",101 % of control
same,T/C,[7],100 % of control
same,T/C,[8],100 % of control
same,T/C,"dose: 200.0 mg/kg/injection, schedule: Q01DX009 (ip), vehicle: saline with Tween-80",91 % of control
C=C(C)c1ccc2c(c1)[C@H](OC(=O)c1ccccc1)C[C@H]1[C@](C)(COC(=O)c3ccccc3)CCC[C@]21C,T/C,[4],105 % of control
same,T/C,[5],92 % of control
same,T/C,[6],90 % of control
BrCC[Se](Br)(Br)c1ccccc1,T/C,"dose: 1.56 mg/kg/injection, schedule: Q01DX009 (ip), vehicle: Klucel (hydroxypropylcellulose) (HPC)",101 % of control
same,T/C,"dose: 3.12 mg/kg/injection, schedule: Q01DX009 (ip), vehicle: Klucel (hydroxypropylcellulose) (HPC)",101 % of control
same,T/C,"dose: 6.25 mg/kg/injection, schedule: Q01DX009 (ip), vehicle: Klucel (hydroxypropylcellulose) (HPC)",99 % of control and 93 % of control
COC(C)(C)c1ccccc1[S+]1OC(C)(C)c2ccccc21 (stereo not drawn),T/C,"dose: 100.0 mg/kg/injection, schedule: Q04DX002 (ip), vehicle: suspension in saline",96 % of control
same,T/C,"dose: 200.0 mg/kg/injection, schedule: Q04DX002 (ip), vehicle: suspension in saline",100 % of control
same,T/C,"dose: 400.0 mg/kg/injection, schedule: Q04DX002 (ip), vehicle: suspension in saline",109 % of control
CC(=O)Nc1cccc([N+](=O)[O-])c1,T/C,"dose: 50.0 mg/kg/injection, schedule: Q04DX003 (ip), vehicle: saline with Tween-80",110 % of control
same,T/C,"dose: 100.0 mg/kg/injection, schedule: Q04DX003 (ip), vehicle: saline with Tween-80",110 % of control
same,T/C,"dose: 200.0 mg/kg/injection, schedule: Q04DX003 (ip), vehicle: saline with Tween-80",110 % of control
CN(C)P(=O)(Oc1occc1C(C)(C)O)N(C)C,T/C,"dose: 7.5 mg/kg/injection, schedule: Q01DX005 (ip), vehicle: saline",100 % of control
same,T/C,"dose: 15.0 mg/kg/injection, schedule: Q01DX005 (ip), vehicle: saline",102 % of control
